From the CheMixHub viscosity set

Assay: xn = mol fraction of the nth substance listed

Nc1cccc2ccccc12 + CCCCO
viscosity [mPa·s], 101 kPa
Conditions	x1 = 0.03572	x1 = 0.06889	x1 = 0.1289	x1 = 0.1817	x1 = 0.2285	x1 = 0.2702	x1 = 0.3076
293.15 K	3.082	3.202	3.539	3.906	4.311	4.724	5.193
303.15 K	2.355	2.427	2.641	2.879	3.134	3.39	3.681
313.15 K	1.828	1.878	2.019	2.186	2.355	2.532	2.719
323.15 K	1.456	1.494	1.596	1.718	1.839	1.965	2.097

CCCOCCO + CC(=O)N(C)C
298.15 K, 101 kPa
Conditions	viscosity [mPa·s]
x1 = 0.0049	0.951
x1 = 0.0086	0.956
x1 = 0.0134	0.961
x1 = 0.0272	0.982
x1 = 0.0419	1.01
x1 = 0.0739	1.049
x1 = 0.1253	1.125
x1 = 0.178	1.202
x1 = 0.2555	1.322
x1 = 0.3191	1.426
x1 = 0.3487	1.478
x1 = 0.3842	1.536
x1 = 0.4022	1.578
x1 = 0.4678	1.679
x1 = 0.5258	1.786
x1 = 0.5917	1.897
x1 = 0.6504	1.987
x1 = 0.725	2.094
x1 = 0.8523	2.26
x1 = 0.9508	2.339
x1 = 0.979	2.345

CCCOCCO + OCCOCCO
101 kPa
Conditions	viscosity [mPa·s]
293.15 K, x1 = 0.0522	34.91
293.15 K, x1 = 0.1049	31.33
293.15 K, x1 = 0.2035	25.38
293.15 K, x1 = 0.2926	20.65
293.15 K, x1 = 0.3996	15.84
293.15 K, x1 = 0.4555	13.73
293.15 K, x1 = 0.4975	12.32
293.15 K, x1 = 0.5488	10.8
293.15 K, x1 = 0.5924	9.666
293.15 K, x1 = 0.7043	7.291
293.15 K, x1 = 0.7921	5.699
293.15 K, x1 = 0.9015	3.905
293.15 K, x1 = 0.9536	3.147
298.15 K, x1 = 0.053	26.82
298.15 K, x1 = 0.1014	24.15
298.15 K, x1 = 0.1985	19.48
298.15 K, x1 = 0.3104	15.16
298.15 K, x1 = 0.4057	12.25
298.15 K, x1 = 0.4511	11.07
298.15 K, x1 = 0.4975	9.977
298.15 K, x1 = 0.5511	8.842
298.15 K, x1 = 0.6049	7.816
298.15 K, x1 = 0.6981	6.239
298.15 K, x1 = 0.8017	4.717
298.15 K, x1 = 0.89	3.562
298.15 K, x1 = 0.9483	2.89
303.15 K, x1 = 0.0608	19.27
303.15 K, x1 = 0.1099	17.35
303.15 K, x1 = 0.1927	14.48
303.15 K, x1 = 0.3017	11.38
303.15 K, x1 = 0.3982	9.174
303.15 K, x1 = 0.4498	8.171
303.15 K, x1 = 0.4916	7.433
303.15 K, x1 = 0.5511	6.487
303.15 K, x1 = 0.6073	5.701
303.15 K, x1 = 0.7083	4.5
303.15 K, x1 = 0.7941	3.671
303.15 K, x1 = 0.9072	2.776
303.15 K, x1 = 0.9353	2.579

CC(C)C(C)C + CCCCCCCCCCCC
298 K, 101.33 kPa
Conditions	viscosity [mPa·s]
x1 = 0.101	1.237
x1 = 0.2039	1.127
x1 = 0.297	1.018
x1 = 0.4013	0.898
x1 = 0.4985	0.7936
x1 = 0.6035	0.6871
x1 = 0.7426	0.5433
x1 = 0.8116	0.4795
x1 = 0.9014	0.4023

CC(C)C(C)C + CCCCCCCCCCCCCCCC
298 K, 101.33 kPa
Conditions	viscosity [mPa·s]
x1 = 0.0846	2.773
x1 = 0.2077	2.325
x1 = 0.2966	2.045
x1 = 0.3988	1.74
x1 = 0.4973	1.432
x1 = 0.6023	1.135
x1 = 0.7034	0.8764
x1 = 0.8019	0.6623
x1 = 0.9002	0.4751

CCCOCCO + O=C1CCCN1
298.15 K, 101 kPa
Conditions	viscosity [mPa·s]
x1 = 0.0058	13.97
x1 = 0.015	13.55
x1 = 0.035	12.83
x1 = 0.0681	11.7
x1 = 0.1013	10.72
x1 = 0.1517	9.453
x1 = 0.2214	8.048
x1 = 0.2526	7.522
x1 = 0.3008	6.831
x1 = 0.3725	5.947
x1 = 0.3786	5.895
x1 = 0.4257	5.419
x1 = 0.4698	5.028
x1 = 0.5219	4.651
x1 = 0.5519	4.44
x1 = 0.6236	3.983
x1 = 0.6987	3.576
x1 = 0.7597	3.317
x1 = 0.8327	2.977
x1 = 0.8764	2.801
x1 = 0.9045	2.695
x1 = 0.9327	2.592
x1 = 0.9694	2.473
x2 = 0.0135	2.409

C[N+](C)(C)C.NCC(=O)[O-] + OCC(O)CO
303 K, 101 kPa
Conditions	viscosity [mPa·s]
x1 = 0.065	397.5
x1 = 0.13	390.8
x1 = 0.21	380.1
x1 = 0.29	369.3
x1 = 0.48	346.5
x1 = 0.71	327.7

N#Cc1ccccc1 + CC(C)(C)O
viscosity [mPa·s], 101.33 kPa
Conditions	x1 = 0.0567	x1 = 0.1542	x1 = 0.2837	x1 = 0.3997	x1 = 0.4923	x1 = 0.5993	x1 = 0.7289	x1 = 0.8283	x1 = 0.8923
303.15 K	2.895	2.017	1.578	1.365	1.262	1.203	1.142	1.121	1.114
308.15 K	2.311	1.696	1.368	1.223	1.137	1.094	1.043	1.034	1.028
313.15 K	1.811	1.429	1.187	1.072	1.021	1.001	0.98	0.962	0.951

CC(O)CN (configuration not stated) + O
viscosity [mPa·s]
Conditions	293.15 K	298.15 K	303.15 K	308.15 K	313.15 K	318.15 K	323.15 K
101 kPa, x1 = 0.01	–	–	–	–	–	0.7225	–
101 kPa, x1 = 0.06	–	–	–	–	–	1.155	–
101 kPa, x1 = 0.5995	–	–	–	–	12.85	–	–
101.3 kPa, x1 = 0.0126	1.228	1.03	0.894	0.781	0.682	–	0.573
101.3 kPa, x1 = 0.026	1.488	1.273	1.122	0.99	0.868	–	0.72
101.3 kPa, x1 = 0.0565	2.334	1.985	1.721	1.493	1.299	–	1.049

NCCOCCOCCN.O=S(=O)([N-]S(=O)(=O)C(F)(F)F)C(F)(F)F.[Li+] + O
323.15 K, 101 kPa
Conditions	viscosity [mPa·s]
x1 = 0.0299	1.86
x1 = 0.0598	4.12
x1 = 0.1028	8.92
x1 = 0.1994	22.16
x1 = 0.2969	37.12
x1 = 0.3942	52.68
x1 = 0.4958	66.7
x1 = 0.6022	79.33
x1 = 0.6956	89.08
x1 = 0.8777	103.8

CCCCn1cc[n+](C)c1.[Cl-] + CC#N
Conditions	viscosity [mPa·s]
308.15 K, 101 kPa, x2 = 0.7003	8.47

N#Cc1ccccc1 + CCO
viscosity [mPa·s], 101.33 kPa
Conditions	x1 = 0.1051	x1 = 0.2045	x1 = 0.3213	x1 = 0.4131	x1 = 0.4921	x1 = 0.6214	x1 = 0.6673	x1 = 0.769	x1 = 0.9218
303.15 K	0.923	0.891	0.897	0.901	0.912	0.938	0.963	1.006	1.075
308.15 K	0.846	0.817	0.826	0.834	0.849	0.873	0.893	0.935	1.005
313.15 K	0.775	0.75	0.762	0.772	0.785	0.813	0.828	0.87	0.939
